Tests used:
Type in all cases: cell-based
[1] = test system: DENV-3 strain H87 prototype; test: Tetravalent RT-qPCR assay Protocol B, serotype 3; conditions: Dengue virus, DENV3, 168 h, RT-qPCR serotype 3 H87, Vero cells, 7 days
Experimental: (§1) Vero cells (4×10^4) were seeded in 96-well plates. After one day, cell culture medium was replaced with 100 μL assay medium containing a 2×, 3× or 5× serial dilution of the compound (concentration range: 50 μg/mL-0.00038 μg/mL, 50 μg/mL-0.0076 μg/mL, and 50 μg/mL-0.00013 μg/mL, respectively) and 100 μL of dengue virus dilution, where a Ct of ˜20 is achieved in RTqPCR. Following a 2 hour incubation period, the cell monolayer was washed 3 times with assay medium to remove residual, non-adsorbed virus and cultures were further incubated for either 4 days (DENV-2 NGC-Tongalike) or 7 days (DENV-1 Djibouti strain D1/H/IMTSSA/98/606, DENV-3 strain H87 prototype, DENV-4 strain H241) in the presence of the inhibitor. Supernatant was harvested and viral RNA load was determined by real-time quantitative RT-PCR. The 50% effective concentration (EC50), which is defined as the compound concentration that is required to inhibit viral RNA replication by 50%, was determined using logarithmic interpolation (Tables 7 and 8).
(§2) RNA was isolated from 100 μL supernatant with the NucleoSpin 96 Virus kit (Filter Service, Düren, Germany) as described by the manufacturer. The sequences of the TaqMan primers (DENV-For, DENV-Rev; Table 5) and TaqMan probes (DENV-Probe Table 5) were selected from non-structural gene 3 (NS3) or NSS, of the respective flaviviruses using Primer Express software (version 2.0; Applied Biosystems, Lennik, Belgium). The TaqMan probe was fluorescently labelled with 6-carboxyfluorescein (FAM) at the 5′ end as the reporter dye, and with minor groove binder (MGB) at the 3′ end as the quencher (Table 5). One-step, quantitative RT-PCR was performed in a total volume of 25 μL, containing 13.9375 μL H2O, 6.25 μL master mix (Eurogentec, Seraing, Belgium), 0.375 μL forward primer, 0.375 μL reverse primer, 1 μL probe, 0.0625 μL reverse transcriptase (Eurogentec) and 3 μL sample. RT-PCR was performed using the ABI 7500 Fast Real-Time PCR System (Applied Biosystems, Branchburg, N.J., USA) using the following conditions: 30 min at 48° C. and 10 min at 95° C., followed by 40 cycles of 15 s at 95° C. and 1 min at 60° C. The data was analyzed using the ABI PRISM 7500 SDS software (version 1.3.1; Applied Biosystems). For absolute quantification, standard curves were generated using 10-fold dilutions of template preparations of known concentrations.

[2] = test system: DENV-1 Djibouti strain D1/H/IMTSSA/98/606; test: Tetravalent RT-qPCR assay Protocol B, serotype 1; conditions: Dengue virus, DENV1, 168 h, RT-qPCR serotype 1 Djibouti, Vero cells, 7 days
Experimental: as §1, §2

DENV-1 strain TC974#666 = test: Tetravalent RT-qPCR assay Protocol A, serotype 1; conditions: Dengue virus, DENV1, 72 h, RT-qPCR serotype 1 TC974#666, Vero cells, 3 days
Experimental: The antiviral activity of the compounds of the invention was tested against DENV-1 strain TC974#666 (NCPV), DENV-2 strain 16681, DENV-3 strain H87 (NCPV) and DENV-4 strains H241 (NCPV) and EDEN (SG/06K2270DK1/2005; GenBank accession number QG398256) in a RT-qPCR assay. Therefore, Vero cells were infected with either DENV-1, or -2, or -3, or -4 in the presence or absence of test compounds. At day 3 post-infection, the cells were lysed and cell lysates were used to prepare cDNA of both a viral target (the 3′UTR of DENV; table 2) and a cellular reference gene (β-actin, table 2). Subsequently, a duplex real time PCR was performed on a Lightcycler480 instrument. The generated Cp value is inversely proportional to the amount of RNA expression of these targets. Inhibition of DENV replication by a test compound result in a shift of Cp's for the 3′UTR gene. On the other hand, if a test compound is toxic to the cells, a similar effect on β-actin expression will be observed. The comparative ΔΔCp method is used to calculate EC50, which is based on the relative gene expression of the target gene (3′UTR) normalized with the cellular housekeeping gene (β-actin). In addition, CC50 values were determined based on the Cp values acquired for the housekeeping gene β-actin.
The culture medium consisted of minimal essential medium supplemented with 2% of heat-inactivated fetal calf serum, 0.04% gentamycin (50 mg/mL) and 2 mM of L-glutamine. Vero cells, obtained from ECACC, were suspended in culture medium and 75 μL/well was added in 96-well plates (10000 cells/well), which already contain the antiviral compounds. Typically, these plates contain a 4-fold serial dilution of 9 dilution steps of the test compound at 200 times the final concentration in 100% DMSO (500 nL; final concentration range: 25 μM-0.00038 μM). In addition, each plate contains wells which are assigned as virus controls (containing cells and virus in the absence of compound) and cell controls (containing cells in the absence of virus and compound). Once the cells were added in the plates, the plates were incubated in a fully humidified incubator (37° C., 5% CO2) until the next day. Then, DENV-1 strain TC974#666, DENV-2 strain 16681, DENV-3 strain H87 or DENV-4 strains H241 or EDEN were added. […] In parallel, 25 μL of culture medium was added to the cell controls. Next, the plates were incubated for 3 days in a fully humidified incubator (37° C., 5% CO2). After 3 days, the supernatant was removed from the wells and the cells were washed twice with ice-cold PBS (˜100 μL). The cell pellets within the 96-well plates were stored at −80° C. for at least 1 day. Next, RNA was extracted using the Cells-to-CT™ lysis kit, according to the manufacture's guideline (Applied Biosystems). The cell lysates can be stored at −80° C. or immediately used in the reverse transcription step.
In preparation of the reverse transcription step, mix A (table 3A) was prepared and 7.57 μL/well was dispensed in a 96-well plate. After addition of 5 μL of the cell lysates, a five minute denaturation step at 75° C. was performed (table 3B). Afterwards, 7.43 μL of mix B was added (table 3C) and the reverse transcription step was initiated (table 3D) to generate cDNA.
Finally, a RT-qPCR mix was prepared, mix C (table 4A), dispensed in 96-well LightCycler qPCR plates to which 3 μL of cDNA was added and the qPCR was performed according to the conditions in table 4B on a LightCycler 480.
Using the LightCycler software and an in-house LIMS system, dose response curves for each compound were calculated and the half maximal effective concentration (EC50) and the half maximal cytotoxic concentration (CC50) were determined (Tables 6-9).

DENV-2 NGC-Tongalike = test: Tetravalent RT-qPCR assay Protocol B, serotype 2; conditions: Dengue virus, DENV2, Vero, 96 h
Experimental: as §1, §2

COc1cc(NC(C(=O)c2c[nH]c3c(C)cc(F)cc23)c2ccc(Cl)cc2OC)cc(OCCO)c1 (single isomer, unassigned) [Compound 8A, 2-(4-chloro-2-methoxyphenyl)-1-(5-fluoro-7-methyl-1H-indol-3-yl)-2-((3-(2-hydroxyethoxy)-5-methoxyphenyl)amino)ethanone]
EC50 [1]: 32 nM | EC50 [2]: 17 nM | EC50 (DENV-1 strain TC974#666): 9.6 nM | EC50 (DENV-2 NGC-Tongalike): 1.4 nM

COc1cc(NC(C(=O)c2c[nH]c3cc(Cl)ccc23)c2ccc(Cl)cc2OC)cc(OCCO)c1 (single isomer, unassigned) [Compound 4A, 1-(6-chloro-1H-indol-3-yl)-2-(4-chloro-2-methoxyphenyl)-2-((3-(2-hydroxyethoxy)-5-methoxyphenyl)amino)ethanone]
EC50 [1]: 29 nM | EC50 [2]: 20 nM | EC50 (DENV-1 strain TC974#666): 7.8 nM | EC50 (DENV-2 NGC-Tongalike): < 0.34 nM

COc1cc(NC(C(=O)c2c[nH]c3c(F)c(F)ccc23)c2ccc(Cl)cc2OC)cc(OCCO)c1 (single isomer, unassigned) [Compound 11B, 2-(4-chloro-2-methoxyphenyl)-1-(6,7-difluoro-1H-indol-3-yl)-2-((3-(2-hydroxyethoxy)-5-methoxyphenyl)amino)ethanone]
EC50 [1]: 26 nM | EC50 [2]: 25 nM | EC50 (DENV-1 strain TC974#666): 18 nM | EC50 (DENV-2 NGC-Tongalike): 0.27 nM

COc1cc(NC(C(=O)c2c[nH]c3cc(OC)c(C)cc23)c2ccc(Cl)cc2OC)cc(OCCO)c1 (single isomer, unassigned) [Compound 6A, 2-(4-chloro-2-methoxyphenyl)-2-((3-(2-hydroxyethoxy)-5-methoxyphenyl)amino)-1-(6-methoxy-5-methyl-1H-indol-3-yl)ethanone]
EC50 [1]: < 15 nM | EC50 [2]: < 15 nM | EC50 (DENV-1 strain TC974#666): 3.6 nM | EC50 (DENV-2 NGC-Tongalike): 0.4 nM

COc1cc(NC(C(=O)c2c[nH]c3cc(OC)ccc23)c2ccc(Cl)cc2OC)cc(OCCO)c1 (single isomer, unassigned) [Compound 5A, 2-(4-chloro-2-methoxyphenyl)-2-((3-(2-hydroxyethoxy)-5-methoxyphenyl)amino)-1-(6-methoxy-1H-indol-3-yl)ethanone]
EC50 [1]: 25 nM | EC50 [2]: 19 nM | EC50 (DENV-1 strain TC974#666): 13 nM | EC50 (DENV-2 NGC-Tongalike): < 0.4 nM

COc1cc(NC(C(=O)c2c[nH]c3cc(OC)c(F)cc23)c2ccc(Cl)cc2OC)cc(OCCO)c1 (single isomer, unassigned) [Compound 7A, 2-(4-chloro-2-methoxyphenyl)-1-(5-fluoro-6-methoxy-1H-indol-3-yl)-2-((3-(2-hydroxyethoxy)-5-methoxyphenyl)amino)ethanone]
EC50 [1]: < 17 nM | EC50 [2]: 20 nM | EC50 (DENV-1 strain TC974#666): 16 nM | EC50 (DENV-2 NGC-Tongalike): 0.27 nM

COc1cc(NC(C(=O)c2c[nH]c3cc(F)c(F)cc23)c2ccc(Cl)cc2OC)cc(OCCO)c1 (single isomer, unassigned) [Compound 9A, 2-(4-chloro-2-methoxyphenyl)-1-(5,6-difluoro-1H-indol-3-yl)-2-((3-(2-hydroxyethoxy)-5-methoxyphenyl)amino)ethanone]
EC50 [1]: 18 nM | EC50 [2]: 19 nM | EC50 (DENV-1 strain TC974#666): 5 nM | EC50 (DENV-2 NGC-Tongalike): < 0.31 nM

COc1cc(NC(C(=O)c2c[nH]c3c(C)c(Cl)ccc23)c2ccc(Cl)cc2OC)cc(OCCO)c1 (single isomer, unassigned) [Compound 3A, 2-(4-chloro-2-methoxyphenyl)-1-(6-chloro-7-methyl-1H-indol-3-yl)-2-((3-(2-hydroxyethoxy)-5-methoxyphenyl)amino)ethanone]
EC50 [1]: 20 nM | EC50 [2]: 18 nM | EC50 (DENV-1 strain TC974#666): 5.3 nM | EC50 (DENV-2 NGC-Tongalike): < 0.33 nM

COc1cc(NC(C(=O)c2c[nH]c3c(C)c(F)ccc23)c2ccc(Cl)cc2OC)cc(OCCO)c1 (single isomer, unassigned) [Compound 2A, 2-(4-chloro-2-methoxyphenyl)-1-(6-fluoro-7-methyl-1H-indol-3-yl)-2-((3-(2-hydroxyethoxy)-5-methoxyphenyl)amino)ethanone]
EC50 [1]: 21 nM | EC50 [2]: 17 nM | EC50 (DENV-1 strain TC974#666): 7.1 nM | EC50 (DENV-2 NGC-Tongalike): 0.4 nM

COc1cc(NC(C(=O)c2c[nH]c3cc(F)ccc23)c2ccc(Cl)cc2OC)cc(OCCO)c1 (single isomer, unassigned) [Compound 1A, 2-(4-chloro-2-methoxyphenyl)-1-(6-fluoro-1H-indol-3-yl)-2-((3-(2-hydroxyethoxy)-5-methoxyphenyl)amino)ethanone]
EC50 [1]: < 15 nM | EC50 [2]: 22 nM | EC50 (DENV-1 strain TC974#666): 7.7 nM | EC50 (DENV-2 NGC-Tongalike): 0.38 nM

COc1cc(NC(C(=O)c2c[nH]c3c(F)cc(C)cc23)c2ccc(Cl)cc2OC)cc(OCCO)c1 (single isomer, unassigned) [Compound 10A, 2-(4-chloro-2-methoxyphenyl)-1-(7-fluoro-5-methyl-1H-indol-3-yl)-2-((3-(2-hydroxyethoxy)-5-methoxyphenyl)amino)ethanone]
EC50 [1]: 27 nM | EC50 [2]: 20 nM | EC50 (DENV-1 strain TC974#666): 14 nM | EC50 (DENV-2 NGC-Tongalike): 1.4 nM

Reference: patent US9944598B2, “Mono- or di-substituted indole derivatives as dengue viral replication inhibitors” (priority 2014, dated 2018)
